Like-named read-outs stand apart in the source and are kept apart here.
Assays:
[1] = tested on: Heliothis armigera larvae; assay: Heliothis armigera test (soy sprouts, immersion); type: in vivo; conditions: Helicoverpa armigera, 168 h, 100 ppm active substance, after 7 days
Protocol: (§1) Solvent: 7 Parts by weight of dimethylformamide
(§2) Emulsifier: 2 Parts by weight of alkyl-aryl polyglycol ether
(§3) For the production of a practical active agent preparation, one mixes 1 part by weight of active substance with the specified amount of solvent and emulsifier and dilutes the concentrate to the desired concentration with water containing an emulsifier.
Soy sprouts (Glycine max) are treated through immersion in the active substance preparation of the desired concentration and filled with Heliothis armigera larvae, while the leaves are still moist.
(§4) After the desired time the mortality in % is determined. In doing so, 100% means that all larvae were killed; 0% means that no larvae were killed.

[2] = tested on: Meloidogyne incognita egg/larvae suspension; assay: Meloidogyne test (gall formation on lettuce); type: in vivo; conditions: 20 ppm active substance; nematicidal effect by gall formation, 100% = no galls
Description: Meloidogyne Test Solvent: 7 Parts by weight of dimethylformamide Emulsifier: 2 Parts by weight of alkyl-aryl polyglycol ether For the production of a practical active agent preparation, one mixes 1 part by weight of active substance with the specified amount of solvent and emulsifier and dilutes the concentrate to the desired concentration with water. Vessels are filled with sand, active substance solution, Meloidogyne incognita egg/larvae suspension and lettuce seeds. The lettuce seeds germinate and the seedlings grow. The galls grow on the roots. After the desired time, the nematicidal effect is determined by means of gall formation in %. In doing so, 100% means that no galls were found; 0% means that the number of galls on the treated plants corresponds to the untreated control.

[3] = tested on: fall armyworm larvae (Spodoptera exigua); assay: Spodoptera exigua test (cabbage leaves, immersion); type: in vivo
Protocol: as §1, §2, §3
Cabbage leaves (Brassica oleracea) are treated through immersion in the active substance preparation of the desired concentration and filled with fall armyworm larvae (Spodoptera exigua), while the leaves are still moist.
as §4

[4] = tested on: cabbage moth larvae (Plutella xylostella); assay: Plutella test (cabbage leaves, immersion); type: in vivo
Protocol: as §1, §2, §3
Cabbage leaves (Brassica oleracea) are treated through immersion in the active substance preparation of the desired concentration and filled with cabbage moth larvae (Plutella xylostella), while the leaves are still moist.
as §4

[5] = tested on: fall armyworm larvae (Spodoptera frugiperda); assay: Spodoptera frugiperda test (spray treatment); type: in vivo; conditions: 100 ppm active substance, maize leaf slices
Description: Spodoptera frugiperda Test (Spray Treatment) Solvent: 78 Parts by weight of acetone • • 1.5 Parts by weight of dimethylformamide Emulsifier: 0.5 Parts by weight of alkyl-aryl polyglycol ether For the production of a practical active agent preparation, one mixes 1 part by weight of active substance with the specified amount of solvent and emulsifier and dilutes the concentrate to the desired concentration with water containing an emulsifier. Maize leaf slices (Zea mays) are sprayed with an active substance preparation of the desired concentration and filled with fall armyworm larvae (Spodoptera frugiperda) after drying. After the desired time the effect in % is determined. In doing so, 100% means that all larvae were killed; 0% means that no larvae were killed.

[6] = tested on: common spider mite (Tetranychus urticae); assay: Tetranychus test (OP-resistant/spray treatment); type: in vivo; conditions: 100 ppm active substance, spray treatment, bean leaf slices, OP-resistant
Description: Tetranychus Test (OP-Resistant/Spray Treatment)
Solvent: 78 Parts by weight of acetone • • 1.5 Parts by weight of dimethylformamide
Emulsifier: 0.5 Parts by weight of alkyl-aryl polyglycol ether
as §3
Bean leaf slices (Phaseolus vulgaris) that are affected by all stages of the common spider mite (Tetranychus urticae) are sprayed with a active substance preparation of the desired concentration.
After the desired time the effect in % is determined. In doing so, 100% means that all spider mites were killed; 0% means that no spider mites were killed.

log P (physical data) = type: physicochemical
[7] = 100 ppm active substance, after 7 days, cabbage leaves

| SMILES | Effect in % after 7 days [5] [%] | Effect in % after 7 days [6] [%] | further results |
| --- | --- | --- | --- |
| COc1c(Cl)cc(OCC=C(Cl)Cl)cc1C1=NOC(CCCOc2ccc(C(F)(F)F)cn2)C1 (racemic) [Example I-1, (R/S)-3-(2-methoxy-3-chloro-5-(1,1-dichloro-1-propen-3-oxy)-phenyl)-5-((5-trifluormethylpyridin-2-yl)-3-(propyl)ether-1-yl)-Δ^2-isoxazoline] | 100 | 100 | mortality at 100 ppm [1]: 100%; Effect in % after 14 days [2]: 80%; mortality at 100 ppm ([3]; Spodoptera exigua, 168 h): 100%; mortality at 100 ppm ([4]; Plutella xylostella, 168 h): 100% |
| COc1c(Cl)cc(OCC=C(Cl)Cl)cc1C1=NOC(COc2ccc(C(F)(F)F)cn2)C1 (racemic) [Example I-5, (R/S)-3-(2-methoxy-3-chloro-5-(dichlorpropenoxy)phenyl)-5-((5-trifluormethylpyridin-2-yl)-2-(methyl)ether-1-yl)Δ^2-isoxazoline] | 10 |  |  |
| COc1c(Cl)cc(OCC=C(Cl)Cl)cc1C1=NOC(CCOc2ccc(OCC(F)(F)F)nc2)C1 (racemic) [Example I-6, (R/S)-3-(2-methoxy-3-chloro-5-(dichloropropenoxy)phenyl)-5-((6-trifluorethoxypyridin-3-yl)-2-(ethyl)ether-1-yl)Δ^2-isoxazoline] | 100 |  | mortality [3, 7]: 100%; mortality [4, 7]: 100% |
| COc1c(Cl)cc(OCC=C(Cl)Cl)cc1C1=NOC(CCCOc2ccc(OCC(F)(F)F)nc2)C1 (racemic) [Example I-7, (R/S)-3-(2-methoxy-3-chloro-5-(dichloropropenoxy)phenyl)-5-((6-trifluorethoxypyridin-3-yl)-3-(propyl)ether-1-yl)Δ^2-isoxazoline] | 100 | 80 |  |
| COc1c(Cl)cc(OCC=C(Cl)Cl)cc1C1=NOC(CCCCOc2ccc(C(F)(F)F)cn2)C1 (racemic) [Example I-10, (R/S)-3-(2-methoxy-3-chloro-5-(dichloropropenoxy)phenyl)-5-((5-trifluormethylpyridin-2-yl)-4-(butyl)ether-1-yl)Δ^2-isoxazoline] | 100 | 80 |  |
| COc1c(Cl)cc(OCC=C(Cl)Cl)cc1C1=NOC(CCOc2ccc(OCC(F)(F)F)nc2)C1 (racemic) [Example I-11, (R/S)-3-(2-methoxy-3-chloro-5-(dichloropropenoxy)phenyl)-5-((6-trifluorethoxypyridin-3-yl)-2-(ethyl)ether-1-yl)Δ^2-isoxazoline] | 100 |  |  |
| COc1c(Cl)cc(OCC=C(Cl)Cl)cc1-c1cc(CCOc2ccc(C(F)(F)F)cn2)on1 [Example I-9, 3-(2-methoxy-3-chloro-5-(dichloropropenoxy)phenyl)-5-((5-trifluormethylpyridin-2-yl)-2-(ethyl)ether-1-yl)isoxazole] | 100 | 90 |  |
| COc1ccc(OCC=C(Cl)Cl)cc1-c1noc(CCCOc2ccc(C(F)(F)F)cn2)n1 [Example I-127, 2-(3-{3-[5-(3,3-dichloro-allyloxy)-2-methoxy-phenyl]-[1,2,4]oxadiazol-5-yl}-propoxy)-5-trifluoromethyl-pyridine] |  |  | logP (log P (physical data); neutral, read-out: log P (neutral)): 4.93 |
| COc1c(Cl)cc(OCC=C(Cl)Cl)cc1-c1nc(CCCOc2ccc(C(F)(F)F)cn2)no1 [Example I-128, 2-(3-{5-[3-chloro-5-(3,3-dichloro-allyloxy)-2-methoxy-phenyl]-[1,2,4]oxadiazol-3-yl}-propoxy)-5-trifluoromethyl-pyridine] |  |  | logP (log P (physical data); read-out: log P): 5.99 |
| COc1c(Cl)cc(OCC=C(Cl)Cl)cc1C1=NC(CO)CO1 (centres unmarked) [{2-[3-chloro-5-(3,3-dichloro-allyloxy)-2-methoxy-phenyl]-4,5-dihydro-oxazol-4-yl}-methanol] |  |  | logP (log P (physical data); pH=2.3, read-out: log P(pH=2.3)): 2.05 |
